Measurements published in US20100152434A1, “Protein Kinase-binding Nucleosides and Associated Methods” (priority 2007, published 2010).
Where two headings read alike, the source gives them in different places.

Assays:
[1] = tested on: CCRF-CEM; assay: cells; settings: Homo sapiens, 48 h
[2] = tested on: UO-31
[3] = tested on: M14
[4] = tested on: OVCAR-3; assay: cells; settings: Homo sapiens, OVCAR-3, 48 h
[5] = tested on: HCT-116; assay: cells; settings: Homo sapiens, HCT-116, 48 h
[6] = tested on: HCC-2998; settings: HCC-2998
[7] = tested on: MALME-3M; assay: cells; settings: Homo sapiens, 48 h
[8] = tested on: HCT-15; assay: cells; settings: Homo sapiens, HCT-15, 48 h
[9] = tested on: BT-549; assay: cells; settings: Homo sapiens, BT-549, 48 h
[10] = tested on: SNB-75
[11] = tested on: SNB-75; assay: cells; settings: Homo sapiens, SNB-75, 48 h
[12] = tested on: HT29; assay: cells; settings: Homo sapiens, HT-29, 48 h
[13] = tested on: U251
[14] = tested on: HCT-116
[15] = tested on: SK-MEL-5
[16] = tested on: UACC-62
[17] = tested on: COLO 205
[18] = tested on: SF-295; assay: cells; settings: Homo sapiens, SF-295, 48 h
[19] = tested on: NCI/ADR-RES; assay: cells; settings: Homo sapiens, 48 h
[20] = tested on: HT29
[21] = tested on: EKVX; assay: cells; settings: Homo sapiens, 48 h
[22] = tested on: HOP-62; assay: cells; settings: Homo sapiens, HOP-62, 48 h
[23] = tested on: U251; assay: cells; settings: Homo sapiens, U-251, 48 h
[24] = tested on: SNB-19; assay: cells; settings: Homo sapiens, SNB-19, 48 h
[25] = tested on: HCC-2998; assay: cells; settings: Homo sapiens, HCC 2998, 48 h
[26] = tested on: T-47D
[27] = tested on: A498
[28] = Log10 Concentration −4.0, Molar
[29] = Log10 Concentration −5.0, Molar
[30] = Log10 Concentration −6.0, Molar
[31] = Log10 Concentration −7.0, Molar
[32] = Log10 Concentration −8.0, Molar

SMILES: CCOC(=O)C[C@@H]1C(O[Si](C)(C)C(C)(C)C)[C@H](n2cnc3c(NC(=O)Nc4ccccc4)ncnc32)O[C@@H]1CNC(=O)NC (stereo partly drawn) [Compound 10]
- GI50 [1]: 6.69 µM
- CC50 ([1]; read-out: LC50): > 100 µM
- TGI ([2]; 48 h): 2.95E−5 Molar
- Percent Growth [2, 28]: −69%
- Percent Growth [2, 29]: 61%
- Percent Growth [2, 30]: 82%
- Percent Growth [2, 31]: 87%
- Percent Growth [2, 32]: 87%
- TGI ([3]; 48 h): 1.16E−5 Molar
- Percent Growth [3, 28]: −56%
- Percent Growth [3, 29]: 4%
- Percent Growth [3, 30]: 81%
- Percent Growth [3, 31]: 82%
- Percent Growth [3, 32]: 90%
- GI50 [4]: 4.59 µM
- CC50 ([4]; read-out: LC50): 91.3 µM
- GI50 [5]: 3.2 µM
- CC50 ([5]; read-out: LC50): 45.6 µM
- TGI ([6]; 48 h): >1.00E−4 Molar
- Percent Growth [6, 28]: 62%
- Percent Growth [6, 29]: 69%
- Percent Growth [6, 30]: 93%
- Percent Growth [6, 31]: 96%
- Percent Growth [6, 32]: 101%
- GI50 [7]: 10.3 µM
- CC50 ([7]; read-out: LC50): > 100 µM
- GI50 [8]: 8.5 µM
- CC50 ([8]; read-out: LC50): > 100 µM
- GI50 [9]: > 100 µM
- CC50 ([9]; read-out: LC50): > 100 µM
- TGI ([10]; 48 h): >1.00E−4 Molar
- Percent Growth [10, 28]: 22%
- Percent Growth [10, 29]: 32%
- Percent Growth [10, 30]: 85%
- Percent Growth [10, 31]: 90%
- Percent Growth [10, 32]: 92%
- GI50 [11]: 4.56 µM
- CC50 ([11]; read-out: LC50): > 100 µM
- GI50 [12]: 4.2 µM
- CC50 ([12]; read-out: LC50): > 100 µM
- TGI ([13]; 48 h): 2.09E−5 Molar
- Percent Growth [13, 28]: −61%
- Percent Growth [13, 29]: 28%
- Percent Growth [13, 30]: 94%
- Percent Growth [13, 31]: 95%
- Percent Growth [13, 32]: 98%
- TGI ([14]; 48 h): 1.61E−5 Molar
- Percent Growth [14, 28]: −88%
- Percent Growth [14, 29]: 23%
- Percent Growth [14, 30]: 78%
- Percent Growth [14, 31]: 113%
- Percent Growth [14, 32]: 93%
- TGI ([15]; 48 h): >1.00E−4 Molar
- Percent Growth [15, 28]: 11%
- Percent Growth [15, 29]: 28%
- Percent Growth [15, 30]: 89%
- Percent Growth [15, 31]: 100%
- Percent Growth [15, 32]: 96%
- TGI ([16]; 48 h): >1.00E−4 Molar
- Percent Growth [16, 28]: 60%
- Percent Growth [16, 29]: 82%
- Percent Growth [16, 30]: 97%
- Percent Growth [16, 31]: 102%
- Percent Growth [16, 32]: 100%
- TGI ([17]; 48 h): >1.00E−4 Molar
- Percent Growth [17, 28]: 3%
- Percent Growth [17, 29]: 20%
- Percent Growth [17, 30]: 93%
- Percent Growth [17, 31]: 97%
- Percent Growth [17, 32]: 102%
- GI50 [18]: 5.73 µM
- CC50 ([18]; read-out: LC50): > 100 µM
- GI50 [19]: > 100 µM
- CC50 ([19]; read-out: LC50): > 100 µM
- TGI ([20]; 48 h): >1.00E−4 Molar
- Percent Growth [20, 28]: 3%
- Percent Growth [20, 29]: 17%
- Percent Growth [20, 30]: 104%
- Percent Growth [20, 31]: 105%
- Percent Growth [20, 32]: 104%
- GI50 [21]: 17.7 µM
- CC50 ([21]; read-out: LC50): > 100 µM
- GI50 [22]: 8.96 µM
- CC50 ([22]; read-out: LC50): 73.1 µM
- GI50 [23]: 4.69 µM
- CC50 ([23]; read-out: LC50): 76 µM
- GI50 [24]: 29 µM
- CC50 ([24]; read-out: LC50): > 100 µM
- GI50 [25]: > 100 µM
- CC50 ([25]; read-out: LC50): > 100 µM
- TGI ([26]; 48 h): >1.00E−4 Molar
- Percent Growth [26, 28]: 13%
- Percent Growth [26, 29]: 16%
- Percent Growth [26, 30]: 73%
- Percent Growth [26, 31]: 89%
- Percent Growth [26, 32]: 91%
- TGI ([27]; 48 h): 1.71E−5 Molar
- Percent Growth [27, 28]: −41%
- Percent Growth [27, 29]: 13%
- Percent Growth [27, 30]: 91%
- Percent Growth [27, 31]: 92%
- Percent Growth [27, 32]: 95%
